23 compounds from ChEMBL document CHEMBL4425158, “Synthesis, structure-activity relationships and biological evaluation of 4,5,6,7-tetrahydropyrazolopyrazines as metabotropic glutamate receptor 5 negative allosteric modulators” (Bioorg Med Chem Lett, 2016) can be followed below.

In brackets after ≈: the same amount, converted by molar mass. Activity calls are given as the source filed them. The calls are words filed in the database; no cut-off is given here.

For series [1], the target named is Metabotropic glutamate receptor 5 (Homo sapiens, UniProt P41594). Description: Negative allosteric modulation of human recombinant mGluR5 expressed in HEK293 cells assessed as L-glutamate-induced intracellular calcium mobilization incubated for 20 mins before L-glutamate addition. Format: functional, cell-based.
The test system of the next series is Mus musculus. Description: Antidepressant activity in CD1(ICR) mouse assessed as decrease in immobility time at 60 mg/kg, po after 1 hr by tail suspension test. Format: functional, organism-based.
Series [2] can be described thus: Aqueous solubility of the compound at pH 7.4. The series is classed as physicochemical.
Series [3] in a line: Aqueous solubility of the compound at pH 1.2. Format: physicochemical.
In a further series the target is Cytochrome P450 3A4 (Homo sapiens, UniProt P08684). Description: Inhibition of CYP3A4 in human liver microsomes using midazolam as substrate after 10 mins in presence of NADPH by LC/MS/MS analysis. Format: ADME.
Series [4] is described as follows: Metabolic stability in rat liver microsomes assessed as compound remaining at 1 uM after 30 mins in presence of NADPH by LC/MS/MS analysis. The series is classed as ADME, Microsome. The settings on record: read-out: Stability.
The target of a further series is Cytochrome P450 2C19 (Homo sapiens, UniProt P33261). Description: Inhibition of CYP2C19 in human liver microsomes using (S)-mephenytoin as substrate after 10 mins in presence of NADPH by LC/MS/MS analysis. Format: ADME.
The target of a further series is Cytochrome P450 2D6 (Homo sapiens, UniProt P10635). Description: Inhibition of CYP2D6 in human liver microsomes using bufuralol as substrate after 10 mins in presence of NADPH by LC/MS/MS analysis. The series is classed as ADME.
In another series the target is T1, Cytochrome P450 1A2 (Homo sapiens, UniProt P05177).
T1 sequence (P05177 whole entry): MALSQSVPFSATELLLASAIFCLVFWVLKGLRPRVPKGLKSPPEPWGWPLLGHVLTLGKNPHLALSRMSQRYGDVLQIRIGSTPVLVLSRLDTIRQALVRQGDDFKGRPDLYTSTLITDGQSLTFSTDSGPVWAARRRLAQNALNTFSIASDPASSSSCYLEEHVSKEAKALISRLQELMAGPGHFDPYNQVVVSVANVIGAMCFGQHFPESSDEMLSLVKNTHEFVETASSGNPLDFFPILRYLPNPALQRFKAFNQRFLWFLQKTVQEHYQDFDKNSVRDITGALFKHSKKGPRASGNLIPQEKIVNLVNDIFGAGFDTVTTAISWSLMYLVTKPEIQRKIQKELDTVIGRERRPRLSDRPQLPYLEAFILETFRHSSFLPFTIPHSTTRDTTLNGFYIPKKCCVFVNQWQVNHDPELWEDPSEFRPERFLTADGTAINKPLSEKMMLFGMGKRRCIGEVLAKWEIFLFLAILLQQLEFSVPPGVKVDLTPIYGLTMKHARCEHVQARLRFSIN
The experiment in a line: Inhibition of CYP1A2 in human liver microsomes using phenacetin as substrate after 10 mins in presence of NADPH by LC/MS/MS analysis. Format: ADME.

The nature of series [5]: Metabolic stability in human liver microsomes assessed as compound remaining at 1 uM after 30 mins in presence of NADPH by LC/MS/MS analysis. The series is classed as ADME, Microsome. Conditions: read-out: Stability.
The next series concerns the target T2, Cytochrome P450 2A6 (Homo sapiens, UniProt P11509).
T2 sequence (P11509 whole entry): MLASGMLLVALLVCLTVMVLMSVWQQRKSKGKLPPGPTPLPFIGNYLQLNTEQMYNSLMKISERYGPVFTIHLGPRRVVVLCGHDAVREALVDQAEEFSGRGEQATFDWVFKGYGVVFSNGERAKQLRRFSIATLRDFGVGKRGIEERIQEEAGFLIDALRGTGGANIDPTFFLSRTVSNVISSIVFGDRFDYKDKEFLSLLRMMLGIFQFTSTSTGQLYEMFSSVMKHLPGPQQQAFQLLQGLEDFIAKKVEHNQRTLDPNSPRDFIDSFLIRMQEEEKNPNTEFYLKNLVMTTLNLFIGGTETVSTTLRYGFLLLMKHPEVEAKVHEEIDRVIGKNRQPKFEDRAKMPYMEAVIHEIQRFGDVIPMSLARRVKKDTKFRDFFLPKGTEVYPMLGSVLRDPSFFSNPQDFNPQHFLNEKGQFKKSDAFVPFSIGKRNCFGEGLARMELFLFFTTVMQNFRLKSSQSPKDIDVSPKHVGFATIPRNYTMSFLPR
Description: Inhibition of CYP2A6 in human liver microsomes using coumarin as substrate after 10 mins in presence of NADPH by LC/MS/MS analysis. Format: ADME.

The next series concerns the target T3, Cytochrome P450 2C8 (Homo sapiens, UniProt P10632).
T3 sequence (P10632 whole entry): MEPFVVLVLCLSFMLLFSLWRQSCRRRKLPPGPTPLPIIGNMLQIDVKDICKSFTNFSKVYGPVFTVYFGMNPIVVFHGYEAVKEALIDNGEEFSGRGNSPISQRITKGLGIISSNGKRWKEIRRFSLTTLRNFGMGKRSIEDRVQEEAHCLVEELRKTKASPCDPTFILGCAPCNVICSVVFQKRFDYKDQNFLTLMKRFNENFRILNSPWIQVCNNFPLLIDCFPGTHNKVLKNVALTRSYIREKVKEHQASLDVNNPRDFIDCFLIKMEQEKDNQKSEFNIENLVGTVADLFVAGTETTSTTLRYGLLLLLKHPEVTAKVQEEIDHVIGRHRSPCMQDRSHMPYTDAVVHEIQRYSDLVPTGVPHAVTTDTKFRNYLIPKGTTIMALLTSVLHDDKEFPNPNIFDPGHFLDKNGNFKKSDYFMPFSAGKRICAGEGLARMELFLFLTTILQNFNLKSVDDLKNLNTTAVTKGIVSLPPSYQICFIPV
The experiment in a line: Inhibition of CYP2C8 in human liver microsomes using amodiaquin as substrate after 10 mins in presence of NADPH by LC/MS/MS analysis. Format: ADME.

The target in another series is Cytochrome P450 2C9 (Homo sapiens, UniProt P11712). The experiment in a line: Inhibition of CYP2C9 in human liver microsomes using diclofenac as substrate after 10 mins in presence of NADPH by LC/MS/MS analysis. Format: ADME.
Cytochrome P450 2C9, sequence (P11712 whole entry): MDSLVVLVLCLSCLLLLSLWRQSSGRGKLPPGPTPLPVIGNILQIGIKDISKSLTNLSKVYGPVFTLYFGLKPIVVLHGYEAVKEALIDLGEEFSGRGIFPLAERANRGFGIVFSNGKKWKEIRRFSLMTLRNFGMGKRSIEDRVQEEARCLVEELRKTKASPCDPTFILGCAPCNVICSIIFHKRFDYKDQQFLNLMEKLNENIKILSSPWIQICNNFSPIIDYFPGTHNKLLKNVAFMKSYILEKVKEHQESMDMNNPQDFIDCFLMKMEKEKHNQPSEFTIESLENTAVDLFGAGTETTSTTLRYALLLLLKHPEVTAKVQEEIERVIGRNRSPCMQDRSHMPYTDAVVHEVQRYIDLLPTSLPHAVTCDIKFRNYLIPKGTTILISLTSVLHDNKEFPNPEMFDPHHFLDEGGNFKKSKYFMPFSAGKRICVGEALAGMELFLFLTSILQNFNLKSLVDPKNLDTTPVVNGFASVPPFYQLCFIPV

Metabotropic glutamate receptor 5, sequence (P41594 whole entry): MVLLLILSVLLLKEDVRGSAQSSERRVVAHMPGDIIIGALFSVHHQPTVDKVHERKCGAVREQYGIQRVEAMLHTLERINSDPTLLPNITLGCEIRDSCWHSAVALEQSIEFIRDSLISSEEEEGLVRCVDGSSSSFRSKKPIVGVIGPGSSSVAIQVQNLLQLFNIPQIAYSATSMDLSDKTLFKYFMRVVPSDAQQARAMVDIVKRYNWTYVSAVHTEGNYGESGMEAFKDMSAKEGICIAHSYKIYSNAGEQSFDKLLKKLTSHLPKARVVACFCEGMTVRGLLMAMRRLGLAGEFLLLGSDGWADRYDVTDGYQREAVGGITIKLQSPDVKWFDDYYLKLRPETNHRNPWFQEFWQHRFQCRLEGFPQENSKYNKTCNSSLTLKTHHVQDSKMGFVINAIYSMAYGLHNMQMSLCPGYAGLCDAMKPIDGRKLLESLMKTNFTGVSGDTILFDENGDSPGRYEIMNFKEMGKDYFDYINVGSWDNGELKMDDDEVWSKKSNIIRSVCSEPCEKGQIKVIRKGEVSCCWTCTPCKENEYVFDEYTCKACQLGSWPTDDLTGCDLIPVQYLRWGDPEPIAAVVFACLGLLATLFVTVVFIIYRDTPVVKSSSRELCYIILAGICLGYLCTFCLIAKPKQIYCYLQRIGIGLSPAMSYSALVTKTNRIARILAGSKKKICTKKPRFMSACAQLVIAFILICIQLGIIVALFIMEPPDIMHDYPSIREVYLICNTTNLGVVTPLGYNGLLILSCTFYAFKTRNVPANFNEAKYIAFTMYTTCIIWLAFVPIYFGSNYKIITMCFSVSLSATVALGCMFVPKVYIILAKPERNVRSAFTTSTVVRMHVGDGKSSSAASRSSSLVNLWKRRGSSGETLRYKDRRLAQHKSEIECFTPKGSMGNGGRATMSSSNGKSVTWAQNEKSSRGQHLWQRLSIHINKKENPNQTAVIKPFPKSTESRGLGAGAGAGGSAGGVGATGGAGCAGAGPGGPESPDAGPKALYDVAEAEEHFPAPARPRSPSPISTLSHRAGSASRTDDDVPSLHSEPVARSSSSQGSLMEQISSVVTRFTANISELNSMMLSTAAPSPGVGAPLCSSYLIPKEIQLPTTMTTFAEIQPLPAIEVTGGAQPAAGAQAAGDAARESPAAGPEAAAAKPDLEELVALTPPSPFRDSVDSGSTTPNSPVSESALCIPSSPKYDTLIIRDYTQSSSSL
Cytochrome P450 2D6, sequence (P10635 whole entry): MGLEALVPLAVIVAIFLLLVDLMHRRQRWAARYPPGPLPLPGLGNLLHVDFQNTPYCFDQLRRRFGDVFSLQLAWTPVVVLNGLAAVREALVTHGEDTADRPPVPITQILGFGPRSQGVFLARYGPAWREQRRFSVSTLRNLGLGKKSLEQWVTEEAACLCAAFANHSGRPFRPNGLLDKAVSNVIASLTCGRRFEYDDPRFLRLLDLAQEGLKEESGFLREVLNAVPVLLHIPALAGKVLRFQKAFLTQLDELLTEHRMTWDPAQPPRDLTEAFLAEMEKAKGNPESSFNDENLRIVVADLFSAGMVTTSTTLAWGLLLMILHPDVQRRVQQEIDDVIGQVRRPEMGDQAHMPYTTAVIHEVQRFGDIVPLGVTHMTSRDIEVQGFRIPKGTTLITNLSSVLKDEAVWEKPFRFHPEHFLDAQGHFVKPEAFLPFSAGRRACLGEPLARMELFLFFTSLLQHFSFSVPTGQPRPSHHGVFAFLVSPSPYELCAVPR
Cytochrome P450 3A4, sequence (P08684 whole entry): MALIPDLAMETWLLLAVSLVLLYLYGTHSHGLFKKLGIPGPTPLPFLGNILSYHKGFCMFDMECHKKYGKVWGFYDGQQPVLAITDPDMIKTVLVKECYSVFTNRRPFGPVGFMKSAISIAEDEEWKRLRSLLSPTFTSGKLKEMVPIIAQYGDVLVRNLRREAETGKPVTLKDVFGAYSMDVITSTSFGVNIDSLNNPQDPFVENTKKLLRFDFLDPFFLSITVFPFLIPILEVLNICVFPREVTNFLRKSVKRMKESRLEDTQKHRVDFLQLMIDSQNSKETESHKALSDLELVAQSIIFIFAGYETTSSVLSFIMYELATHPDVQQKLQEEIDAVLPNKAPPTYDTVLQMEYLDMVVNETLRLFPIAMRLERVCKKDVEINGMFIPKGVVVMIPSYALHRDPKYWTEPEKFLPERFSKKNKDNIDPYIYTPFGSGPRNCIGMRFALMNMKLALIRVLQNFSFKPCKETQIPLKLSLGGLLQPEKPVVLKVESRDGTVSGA
Cytochrome P450 2C19, sequence (P33261 whole entry): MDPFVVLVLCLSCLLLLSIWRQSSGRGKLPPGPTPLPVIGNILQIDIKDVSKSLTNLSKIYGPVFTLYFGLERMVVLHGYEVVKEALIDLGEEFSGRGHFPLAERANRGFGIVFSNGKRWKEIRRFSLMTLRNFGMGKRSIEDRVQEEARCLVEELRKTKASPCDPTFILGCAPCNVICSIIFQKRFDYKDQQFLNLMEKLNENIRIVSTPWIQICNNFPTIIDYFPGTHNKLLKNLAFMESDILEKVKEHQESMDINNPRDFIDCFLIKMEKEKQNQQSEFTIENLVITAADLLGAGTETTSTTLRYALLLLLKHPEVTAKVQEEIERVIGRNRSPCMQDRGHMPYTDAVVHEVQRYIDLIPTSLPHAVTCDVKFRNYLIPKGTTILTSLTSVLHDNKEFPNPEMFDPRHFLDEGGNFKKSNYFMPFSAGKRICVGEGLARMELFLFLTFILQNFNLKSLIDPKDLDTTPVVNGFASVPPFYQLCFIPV

On to `COc1cccc(C(=O)N2CCn3nc(-c4ccc(F)cn4)cc3C2)c1`, for which the IC50 in series [1] was 482 nM.
On the same count and under the same terms, then `O=C(c1ccc(Cl)cc1)N1CCn2nc(-c3ccccn3)cc2C1`, with 9470 nM; and `Cc1cccc(C(=O)N2CCn3nc(-c4ccc(F)cn4)cc3C2)c1`, with 150 nM.
Consider `O=C(c1ccccc1)N1CCn2nc(-c3cccnc3)cc2C1`, for which, in series [1], the IC50 is over 10000 nM.
Still for that read-out and setting: the same measure for `Cc1cccc(-c2cc3n(n2)CCN(C(=O)c2ccccc2)C3)n1`: 568 nM; for `O=C(c1cc(Cl)cc(Cl)c1)N1CCn2nc(-c3ccccn3)cc2C1`: 270 nM; for `O=C(c1cccc(Cl)c1)N1CCn2nc(-c3ccc(F)cn3)cc2C1`: 150 nM.
The same measure, in the same setting: the same measure for `O=C(c1ccccc1)N1CCn2nc(-c3ccncc3)cc2C1`: 1290 nM.
For `O=C(c1cccc(C(F)(F)F)c1)N1CCn2nc(-c3ccc(F)cn3)cc2C1`, the IC50 in series [1] worked out at 383 nM.
Still for that read-out and setting: then `Cc1ccc(-c2cc3n(n2)CCN(C(=O)c2ccccc2)C3)nc1`, with 244 nM.
As for `CN(C)CCCN1c2ccccc2CCc2ccccc21`, the outcome in the series on Mus musculus was Active.
Regarding `O=C(c1cccc(Cl)c1)N1CCn2nc(-c3ccccn3)cc2C1`, in [1], the IC50 was 176 nM.
Same read-out and setting: the same measure for `Cc1ccnc(-c2cc3n(n2)CCN(C(=O)c2ccccc2)C3)c1`: 451 nM; for `O=C(c1ccccc1Cl)N1CCn2nc(-c3ccccn3)cc2C1`: 2480 nM; for `O=C(c1ccccc1)N1CCn2nc(-c3ccc(F)cn3)cc2C1`: 164 nM.
For `O=C(c1cccc(F)c1)N1CCn2nc(-c3ccc(F)cn3)cc2C1`, the IC50 in series [1] stood at 257 nM.
Regarding `O=C(c1ccccc1)N1CCn2nc(-c3ccccc3)cc2C1`, the values for the solubility in series [2] and in series [3] were 2 µg/mL (≈ 6.59 µM) and 4 µg/mL (≈ 13.2 µM), respectively. Further, the IC50 in series [1] was 127 nM.
`Cc1cccnc1-c1cc2n(n1)CCN(C(=O)c1ccccc1)C2`: the IC50 in series [1] is over 10000 nM.
The same measure, in the same setting: then `CC(C)(C)c1cc2n(n1)CCN(C(=O)c1ccc3ccccc3c1)C2`, with 477 nM; and `Cc1cc(F)cc(C(=O)N2CCn3nc(-c4ccc(F)cn4)cc3C2)c1`, with 197 nM.
Still for that read-out and setting: the same measure for `N#Cc1cccc(C(=O)N2CCn3nc(-c4ccc(F)cn4)cc3C2)c1`: over 10000 nM.
On the same count and under the same terms, the same measure for `O=C(c1ccccc1)N1CCn2nc(-c3ccc(Cl)cn3)cc2C1`: 201 nM.
As to `O=C(c1ccccc1)N1CCn2nc(-c3ccccn3)cc2C1`, the IC50 was over 50000 nM at Cytochrome P450 3A4; over 50000 nM on Cytochrome P450 2C19; over 50000 nM at Cytochrome P450 2D6; over 50000 nM at Cytochrome P450 1A2; 235 nM in series [1]; over 50000 nM on Cytochrome P450 2A6. Besides, the IC50 at Cytochrome P450 2C8 and at Cytochrome P450 2C9 was over 50000 nM each time. The solubility in series [2] and in series [3] was over 100 µg/mL each time. The remaining at 0.5 h, 1 µM is 95% in series [4] and 92% in series [5].
